Assay results: PubChem BioAssay AID330 (DTP/NCI, 2004)
“And” between values parts separate entries of the source, which are not always exact repeats. Equal values may be shown once. Toxic doses and inconclusive results are not listed.

Test system: P388 leukemia ip, CD2F1 mice, survival T/C
Assay: NCI In Vivo Anticancer Drug Screen. Data for tumor model P388 Leukemia (intraperitoneal) in CD2F1 (CDF1) mice
Conditions: endpoint: median survival time, higher = longer survival
Procedure, shortened: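 Mice carrying the transplanted tumor received test compound or vehicle. Survival was recorded in each group, and the value is the treated-group measurement divided by that of the vehicle-treated control group.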

[1] = dose: 25.0 mg/kg/injection, schedule: Q01DX005 (ip), vehicle: Klucel (hydroxypropylcellulose) (HPC)
[2] = dose: 50.0 mg/kg/injection, schedule: Q01DX005 (ip), vehicle: Klucel (hydroxypropylcellulose) (HPC)
[3] = dose: 100.0 mg/kg/injection, schedule: Q01DX005 (ip), vehicle: Klucel (hydroxypropylcellulose) (HPC)
[4] = dose: 200.0 mg/kg/injection, schedule: Q01DX005 (ip), vehicle: Klucel (hydroxypropylcellulose) (HPC)
[5] = dose: 50.0 mg/kg/injection, schedule: Q01DX005 (ip), vehicle: saline
[6] = dose: 100.0 mg/kg/injection, schedule: Q01DX005 (ip), vehicle: saline
[7] = dose: 200.0 mg/kg/injection, schedule: Q01DX005 (ip), vehicle: saline
[8] = dose: 50.0 mg/kg/injection, schedule: Q01DX005 (ip), vehicle: saline with Tween-80
[9] = dose: 60.0 mg/kg/injection, schedule: Q01DX005 (ip), vehicle: saline with Tween-80
[10] = dose: 120.0 mg/kg/injection, schedule: Q01DX005 (ip), vehicle: saline with Tween-80
[11] = dose: 240.0 mg/kg/injection, schedule: Q01DX005 (ip), vehicle: saline with Tween-80
[12] = dose: 100.0 mg/kg/injection, schedule: Q01DX009 (ip), vehicle: saline with Tween-80

## CCCCCCCN(CCCCCCC)C(=N)c1ccnc2ccccc12
dose: 6.25 mg/kg/injection, schedule: Q01DX005 (ip), vehicle: Klucel (hydroxypropylcellulose) (HPC)
  T/C: 101 % of control
dose: 12.5 mg/kg/injection, schedule: Q01DX005 (ip), vehicle: Klucel (hydroxypropylcellulose) (HPC)
  T/C: 99 % of control
[1]
  T/C: 100 % of control

## COC(=O)C1C(C)C2CCCCC2CC1(C)O (stereo not drawn)
dose: 100.0 mg/kg/injection, schedule: Q04DX003 (ip), vehicle: Klucel (hydroxypropylcellulose) (HPC)
  T/C: 103 % of control
dose: 200.0 mg/kg/injection, schedule: Q04DX003 (ip), vehicle: Klucel (hydroxypropylcellulose) (HPC)
  T/C: 112 % of control
dose: 400.0 mg/kg/injection, schedule: Q04DX003 (ip), vehicle: Klucel (hydroxypropylcellulose) (HPC)
  T/C: 100 % of control

## Nc1ncnc2nc(Br)[nH]c12
[2]
  T/C: 111 % of control
[3]
  T/C: 95 % of control
[4]
  T/C: 106 % of control

## CC(C)C(N)C(=O)NC(C(=O)NS(=O)(=O)c1ccc(N)cc1)C(C)C (stereo not drawn)
[5]
  T/C: 99 % of control
[6]
  T/C: 93 % of control
[7]
  T/C: 98 % of control

## Cc1ccc(S(=O)(=O)N/N=C/c2cc(I)cc([N+](=O)[O-])c2O)cc1
[8]
  T/C: 95 % of control
dose: 100.0 mg/kg/injection, schedule: Q01DX005 (ip), vehicle: saline with Tween-80
  T/C: 101 % of control
dose: 200.0 mg/kg/injection, schedule: Q01DX005 (ip), vehicle: saline with Tween-80
  T/C: 100 % of control

## COc1ccc(-n2c(=O)c(N=Nc3ccc(S(=O)(=O)N=C(N)N)cc3)c(O)n(-c3ccc(Cl)cc3)c2=S)cc1
dose: 100.0 mg/kg/injection, schedule: Q01DX002 (ip), vehicle: Klucel (hydroxypropylcellulose) (HPC)
  T/C: 99 % of control
dose: 200.0 mg/kg/injection, schedule: Q01DX002 (ip), vehicle: Klucel (hydroxypropylcellulose) (HPC)
  T/C: 107 % of control
dose: 400.0 mg/kg/injection, schedule: Q01DX002 (ip), vehicle: Klucel (hydroxypropylcellulose) (HPC)
  T/C: 106 % of control

## CN=C(N)c1ccc(N=C(N)c2ccc(C(N)=Nc3ccc(C(N)=NC)cc3)cc2)cc1
dose: 1.3 mg/kg/injection, schedule: Q01DX005 (iv), vehicle: saline
  T/C: 100 % of control
dose: 5.0 mg/kg/injection, schedule: Q04DX003 (ip), vehicle: saline
  T/C: 100 % of control
dose: 6.48 mg/kg/injection, schedule: Q04DX002 (ip), vehicle: saline
  T/C: 92 % of control
dose: 10.0 mg/kg/injection, schedule: Q04DX003 (ip), vehicle: saline
  T/C: 100 % of control
dose: 10.8 mg/kg/injection, schedule: Q01DX005 (ip), vehicle: water
  T/C: 120 % of control
dose: 20.0 mg/kg/injection, schedule: Q01DX009 (ip), vehicle: saline
  T/C: 172 % of control
dose: 30.0 mg/kg/injection, schedule: Q01DX005 (ip), vehicle: saline
  T/C: 163 % of control

## COC1=CC(=O)C(CC=C(C)C)=CC1=O
[2]
  T/C: 100 % of control
[3]
  T/C: 102 % of control
[4]
  T/C: 105 % of control

## O=C(Oc1ccccc1)N1CCCSC1=S
[9]
  T/C: 98 % of control
[10]
  T/C: 100 % of control

## COc1cc2c(cc1O)C(=O)CCC2
dose: 50.0 mg/kg/injection, schedule: Q01DX009 (ip), vehicle: Klucel (hydroxypropylcellulose) (HPC)
  T/C: 102 % of control
dose: 100.0 mg/kg/injection, schedule: Q01DX009 (ip), vehicle: Klucel (hydroxypropylcellulose) (HPC)
  T/C: 103 % of control
dose: 200.0 mg/kg/injection, schedule: Q01DX009 (ip), vehicle: Klucel (hydroxypropylcellulose) (HPC)
  T/C: 104 % of control

## CSC(=S)N/N=C\c1c(CO)cnc(C)c1O
dose: 100.0 mg/kg/injection, schedule: Q04DX002 (ip), vehicle: saline with Tween-80
  T/C: 116 % of control
dose: 400.0 mg/kg/injection, schedule: Q04DX002 (ip), vehicle: saline with Tween-80
  T/C: 113 % of control

## O=C(Nc1ccc(-c2ccc(NC(=O)C34CC5CC(CC(C5)C3)C4)cc2)cc1)C12CC3CC(CC(C3)C1)C2
[1]
  T/C: 98 % of control and 100 % of control
[2]
  T/C: 101 % of control
[3]
  T/C: 89 % of control and 92 % of control
[4]
  T/C: 97 % of control

## CC1=NOC(=O)/C1=C/c1ccc(Cl)cc1
[9]
  T/C: 99 % of control
[10]
  T/C: 105 % of control
[11]
  T/C: 104 % of control

## COC1=C(C)C(=O)c2c(C(C)C)cc(O)c(C=O)c2C1=O
dose: 3.0 mg/kg/injection, schedule: Q01DX009 (ip), vehicle: Klucel (hydroxypropylcellulose) (HPC)
  T/C: 100 % of control
dose: 6.0 mg/kg/injection, schedule: Q01DX009 (ip), vehicle: Klucel (hydroxypropylcellulose) (HPC)
  T/C: 100 % of control
dose: 12.0 mg/kg/injection, schedule: Q01DX009 (ip), vehicle: Klucel (hydroxypropylcellulose) (HPC)
  T/C: 109 % of control
dose: 24.0 mg/kg/injection, schedule: Q01DX009 (ip), vehicle: Klucel (hydroxypropylcellulose) (HPC)
  T/C: 109 % of control

## O=C1c2ccccc2C(=O)N1CCC(=O)n1ccnc1
dose: 17.5 mg/kg/injection, schedule: Q01DX005 (ip), vehicle: Klucel (hydroxypropylcellulose) (HPC)
  T/C: 104 % of control
dose: 35.0 mg/kg/injection, schedule: Q01DX005 (ip), vehicle: Klucel (hydroxypropylcellulose) (HPC)
  T/C: 97 % of control
dose: 70.0 mg/kg/injection, schedule: Q01DX005 (ip), vehicle: Klucel (hydroxypropylcellulose) (HPC)
  T/C: 99 % of control

## CCCn1c(Cl)c(C=O)c2ccccc21
dose: 100.0 mg/kg/injection, schedule: Q01DX001 (ip), vehicle: Klucel (hydroxypropylcellulose) (HPC)
  T/C: 104 % of control
dose: 200.0 mg/kg/injection, schedule: Q01DX001 (ip), vehicle: Klucel (hydroxypropylcellulose) (HPC)
  T/C: 98 % of control
dose: 400.0 mg/kg/injection, schedule: Q01DX001 (ip), vehicle: Klucel (hydroxypropylcellulose) (HPC)
  T/C: 97 % of control

## C#CCOC(=O)c1ccccc1
dose: 12.5 mg/kg/injection, schedule: Q01DX005 (ip), vehicle: saline with Tween-80
  T/C: 104 % of control
dose: 25.0 mg/kg/injection, schedule: Q01DX005 (ip), vehicle: saline with Tween-80
  T/C: 89 % of control
[8]
  T/C: 104 % of control and 95 % of control

## O=C1CC2(C(=O)O1)C1C(=O)OC(=O)C1C1C=CC=NN12 (stereo not drawn)
dose: 25.0 mg/kg/injection, schedule: Q01DX009 (ip), vehicle: saline with Tween-80
  T/C: 90 % of control
dose: 50.0 mg/kg/injection, schedule: Q01DX009 (ip), vehicle: saline with Tween-80
  T/C: 93 % of control
[12]
  T/C: 93 % of control

## CC(C)NC1CCC(Nc2ccnc3cc(Cl)ccc23)CC1 (stereo not drawn)
[2]
  T/C: 98 % of control
[3]
  T/C: 97 % of control

## Cc1cc(NC(=O)c2ccccc2O)n(-c2ccccc2)n1
dose: 100.0 mg/kg/injection, schedule: Q01DX001 (ip), vehicle: saline with Tween-80
  T/C: 97 % of control
dose: 200.0 mg/kg/injection, schedule: Q01DX001 (ip), vehicle: saline with Tween-80
  T/C: 100 % of control
dose: 400.0 mg/kg/injection, schedule: Q01DX001 (ip), vehicle: saline with Tween-80
  T/C: 95 % of control

## CCC(C)(C)C(=O)O
[12]
  T/C: 100 % of control
dose: 200.0 mg/kg/injection, schedule: Q01DX009 (ip), vehicle: saline with Tween-80
  T/C: 100 % of control

## C=C(C)C(=O)OC1C/C(CO)=C\C(O)C/C(C)=C/C2OC(=O)C(=C)C21 (stereo not drawn)
dose: 1.25 mg/kg/injection, schedule: Q01DX009 (ip), vehicle: saline + alcohol
  T/C: 121 % of control
dose: 2.5 mg/kg/injection, schedule: Q01DX009 (ip), vehicle: saline + alcohol
  T/C: 104 % of control
dose: 10.0 mg/kg/injection, schedule: Q01DX009 (ip), vehicle: saline + alcohol
  T/C: 159 % of control
dose: 20.0 mg/kg/injection, schedule: Q01DX009 (ip), vehicle: saline + alcohol
  T/C: 167 % of control

## COC1=CC(=O)OC(/C=C/c2ccccc2)(OC)C1=O (stereo not drawn)
[9]
  T/C: 102 % of control
[10]
  T/C: 110 % of control
[11]
  T/C: 101 % of control

## O=C(CNC(=O)Nc1ccc(Cl)c(Cl)c1)N/N=C/c1c(O)ccc2ccccc12
dose: 3.75 mg/kg/injection, schedule: Q01DX005 (ip), vehicle: saline with Tween-80
  T/C: 96 % of control
dose: 7.5 mg/kg/injection, schedule: Q01DX005 (ip), vehicle: saline with Tween-80
  T/C: 102 % of control
dose: 15.0 mg/kg/injection, schedule: Q01DX005 (ip), vehicle: saline with Tween-80
  T/C: 88 % of control and 94 % of control
[11]
  T/C: 100 % of control

## Nc1[nH]c(=S)[nH]c(=O)c1NS(=O)(=O)c1ccc([N+](=O)[O-])cc1
dose: 30.0 mg/kg/injection, schedule: Q01DX005 (ip), vehicle: Klucel (hydroxypropylcellulose) (HPC)
  T/C: 101 % of control and 108 % of control
dose: 60.0 mg/kg/injection, schedule: Q01DX005 (ip), vehicle: Klucel (hydroxypropylcellulose) (HPC)
  T/C: 98 % of control and 94 % of control
dose: 120.0 mg/kg/injection, schedule: Q01DX005 (ip), vehicle: Klucel (hydroxypropylcellulose) (HPC)
  T/C: 101 % of control and 92 % of control
dose: 240.0 mg/kg/injection, schedule: Q01DX005 (ip), vehicle: Klucel (hydroxypropylcellulose) (HPC)
  T/C: 90 % of control

## O=C1CNCC(=O)N1
[5]
  T/C: 110 % of control
[6]
  T/C: 99 % of control
[7]
  T/C: 100 % of control
